The results in this text go back to US12077555B2, “STAT degraders and uses thereof” (Kymera Therapeutics, Inc., priority 2019, dated 2024).

The assay addresses STAT3 (Homo sapiens, UniProt P40763). Description: STAT3 HiBiT degradation assay in transfected A549 cells. Format: cell-based. The arrangement: expressed in transfected cells; host or cells: A549. The method, then:
Compound preparation and Cell seeding: The transfected A549 cells were harvested from dish into cell culture medium and cell numbers counted. Cells were diluted with culture medium to the desired density and 30 μL of cell suspension (about 2000 cells/well) were added into each well of a 384-well cell culture plate as designated and transferred into 37° C. 5% CO2 incubator for 24 h. Compounds were dissolved to 10 mM stock solution and 12 μL of the stock solution was transferred to a 384 LDV-plate. 3 fold, 10-point dilution was performed by transferring 4 μL compound into 8 μL DMSO using a TECAN (EVO200) liquid handler. 30 μL of diluted compound from compound source plate was transferred into the cell plate as designated by using Echo550 and transferred into 37° C. 5% CO2 incubator for 24 h.
Detection: Plates were removed from incubators and equilibrated at room temperature for 15 minutes. Nano-Glo Hibit Lytic Detection reagent (Promega Cat #N3040) was thawed and equilibrated to room temperature before the experiment. 30 μL of Nano-Glo Hibit Lytic Detection reagent was added into each well to be detected. The plates were held at room temperature for 10 min followed by reading on EnSpire.
Data analysis: The remaining activity was calculated following the formula: Remaining Activity (%)=100%×(Lumsample−LumNC)/(LumPC−LumNC). Calculate the IC50 by fitting the curve using Xlfit (v5.3.1.3), equation 201: fit=(A+((B−A)/(1+((x/C)^D)))); A: Bottom; B: Top; C: IC50; and D: Slope.
The letter codes for STAT3 DC50 include: A (<0.01 μM), B (0.01-0.1 μM), C (0.1-1.0 μM), and D (>1.0 μM).
On the technique in general: HiBiT is a short tag that completes a luciferase, so light tracks the accessible tagged protein.

Setting [1] is: A549, 24 h; read-out: STAT3 HiBiT A549 degradation 24 h: Average external-Abs DC50.
[2] abbreviates: read-out: STAT3 HiBiT A549 degradation 24 h: Average external-Abs DC50; A549, 24 h.

Each structure is given as a SMILES string. Like-named read-outs stand apart in the source and are kept apart here.

Sequence of STAT3 (P40763 whole entry): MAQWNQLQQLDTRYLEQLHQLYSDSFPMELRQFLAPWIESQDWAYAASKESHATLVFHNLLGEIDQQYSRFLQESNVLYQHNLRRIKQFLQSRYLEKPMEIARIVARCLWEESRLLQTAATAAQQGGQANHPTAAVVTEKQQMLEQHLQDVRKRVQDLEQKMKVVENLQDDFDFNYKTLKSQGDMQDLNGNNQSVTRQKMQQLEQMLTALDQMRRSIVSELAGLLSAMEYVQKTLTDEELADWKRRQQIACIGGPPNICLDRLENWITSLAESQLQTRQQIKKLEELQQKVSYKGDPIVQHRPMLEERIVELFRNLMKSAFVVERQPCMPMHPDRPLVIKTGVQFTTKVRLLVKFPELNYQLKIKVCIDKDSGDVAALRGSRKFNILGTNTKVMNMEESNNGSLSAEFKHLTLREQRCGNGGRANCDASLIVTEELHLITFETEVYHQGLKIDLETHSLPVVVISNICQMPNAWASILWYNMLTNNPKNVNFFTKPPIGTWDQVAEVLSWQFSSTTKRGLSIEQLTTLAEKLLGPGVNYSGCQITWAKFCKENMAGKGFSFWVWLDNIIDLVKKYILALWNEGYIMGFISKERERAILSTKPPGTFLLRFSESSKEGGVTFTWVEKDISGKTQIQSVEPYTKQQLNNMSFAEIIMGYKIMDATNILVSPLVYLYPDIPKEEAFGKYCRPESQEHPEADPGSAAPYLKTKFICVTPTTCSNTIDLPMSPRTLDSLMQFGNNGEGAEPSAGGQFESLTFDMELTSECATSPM

Turning to `CC(C)c1ccc(CNC(=O)[C@H](CCC(N)=O)NC(=O)[C@@H]2Cc3cc(CCCCCCc4ccc5c(c4)n(C)c(=O)n5C4CCC(=O)NC4=O)cc4c3N2C(=O)[C@@H](NC(=O)c2cc3cc(C(=O)P(=O)(O)O)ccc3[nH]2)CC4)cc1` (stereo partly drawn) [Compound I-232, 2-[[(2S,11S)-2-[[(1S)-3-carbamoyl-1-[[(4-isopropylphenyl)methyl]carbamoyl]propyl]carbamoyl]-6-[6-[1-(2,6-dioxopiperidin-3-yl)-3-methyl-2-oxo-1,3-benzodiazol-5-yl]hexyl]-12-oxo-1-azatricyclo[6.4.1.0^[4,13]]trideca-4(13),5,7-trien-11-yl]carbamoyl]-1H-indole-5-carbonylphosphonic acid], the DC50 (usually the concentration giving 50% degradation) under setting [1] lay within 10 to 100 nM.

As for `Cc1ncsc1-c1ccc(CNC(=O)[C@@H]2C[C@@H](O)CN2C(=O)[C@@H](NC(=O)CCCCCC#CCOC[C@H](CCC(N)=O)NC(=O)[C@@H]2Cc3cccc4c3N2C(=O)[C@@H](NC(=O)c2cc3cc(C(=O)P(=O)(O)O)ccc3[nH]2)CC4)C(C)(C)C)cc1` [Compound I-159], the DC50 under setting [1] is 100 to 1000 nM. Turning to `Cn1c(=O)n(C2CCC(=O)NC2=O)c2ccc([C@H]3CC[C@@H](CCC(=O)N4CC[C@H]5CC[C@@H](C(=O)N[C@@H](CCC(N)=O)C(=O)NC(c6ccccc6)c6ccccc6)N5C(=O)[C@@H](NC(=O)c5cc6cc(C(=O)P(=O)(O)O)ccc6[nH]5)C4)CC3)cc21` (stereo partly drawn) [Compound I-273, 2-[[(5S,8S,10aR)-8-[[(1S)-3-carbamoyl-1-(diphenylmethylcarbamoyl)propyl]carbamoyl]-6-oxo-3-[3-[(1s,4s)-4-[1-(2,6-dioxopiperidin-3-yl)-3-methyl-2-oxo-1,3-benzodiazol-5-yl]cyclohexyl]propanoyl]-octahydropyrrolo[1,2-a][1,5]diazocin-5-yl]carbamoyl]-1H-indole-5-carbonylphosphonic acid], the DC50 under setting [1] was in the range of 100 to 1000 nM. As to `Cc1ncsc1-c1ccc(CNC(=O)[C@@H]2C[C@@H](O)CN2C(=O)[C@@H](NC(=O)CCCCc2ccc(CO[C@H](C)[C@H](CCC(N)=O)NC(=O)[C@@H]3[C@@H]4C[C@@H]4CN3C(=O)[C@H](CC(C)C)NC(=O)c3cc4cc(C(=O)P(=O)(O)O)ccc4[nH]3)cc2)C(C)(C)C)cc1` [Compound I-137, diammonium 2-[[(2S)-1-[(1R,2S,5S)-2-[[(3S,4R)-1-carbamoyl-4-[[4-(4-[[(2S)-1-[(2S,4R)-4-hydroxy-2-([[4-(4-methyl-1,3-thiazol-5-yl)phenyl]methyl]carbamoyl)pyrrolidin-1-yl]-3,3-dimethyl-1-oxobutan-2-yl]carbamoyl]butyl)phenyl]methoxy]pentan-3-yl]carbamoyl]-3-azabicyclo[3.1.0]hexan-3-yl]-4-methyl-1-oxopentan-2-yl]carbamoyl]-1H-indole-5-carbonylphosphonate], under setting [2], the DC50 fell in the range of 10 to 100 nM.

In the case of `Cc1ncsc1-c1ccc([C@H](C)NC(=O)[C@@H]2C[C@@H](O)CN2C(=O)[C@@H](NC(=O)CCCCCc2cc(F)cc(OC[C@H](CCC(N)=O)NC(=O)[C@@H]3Cc4cccc5c4N3C(=O)[C@@H](NC(=O)c3cc4cc(C(=O)P(=O)(O)O)ccc4[nH]3)CC5)c2F)C(C)(C)C)cc1` [Compound I-267], the DC50 under setting [1] was under 10 nM.

In the case of `Cc1ncsc1-c1ccc([C@H](C)NC(=O)[C@@H]2C[C@@H](O)CN2C(=O)[C@@H](NC(=O)CCCCCc2cc(OC[C@H](CCC(N)=O)NC(=O)[C@@H]3Cc4cccc5c4N3C(=O)[C@@H](NC(=O)c3cc4cc(C(=O)P(=O)(O)O)ccc4[nH]3)CC5)ccc2F)C(C)(C)C)cc1` [Compound I-215], under setting [1], the DC50 was in the range of 10 to 100 nM.

In the case of `Cc1ncsc1-c1ccc([C@H](C)NC(=O)[C@@H]2C[C@@H](O)CN2C(=O)[C@@H](NC(=O)CCCCc2ccc(CO[C@H](C)[C@H](CCC(N)=O)NC(=O)[C@@H]3Cc4cccc5c4N3C(=O)[C@@H](NC(=O)c3cc4cc(C(=O)O)ccc4[nH]3)CC5)cc2)C(C)(C)C)cc1` [Compound I-131, Ammonium 2-[[(2S,11S)-2-[[(3S,4R)-1-carbamoyl-4-[[4-(4-[[(2S)-1-[(2S,4R)-4-hydroxy-2-[[(1S)-1-[4-(4-methyl-1,3-thiazol-5 yl)phenyl]ethyl]carbamoyl]pyrrolidin-1-yl]-3,3-dimethyl-1-oxobutan-2-yl]carbamoyl]butyl)phenyl]methoxy]pentan-3-yl]carbamoyl]-12-oxo-1-azatricyclo[6.4.1.0^[4,13]]trideca-4(13),5,7-trien-11-yl]carbamoyl]-1H-indole-5-carboxylate], the DC50 under setting [1] was over 1000 nM.

Consider `Cc1ncsc1-c1ccc([C@H](C)NC(=O)[C@@H]2C[C@@H](O)CN2C(=O)[C@@H](NC(=O)CCCCc2cccc(OC[C@H](CCC(N)=O)NC(=O)[C@@H]3CCCN3C(=O)[C@H](CC(C)C)NC(=O)c3cc4cc(C(=O)P(=O)(O)O)ccc4[nH]3)c2F)C(C)(C)C)cc1` [Compound I-276, diammonium 2-[[(2S)-1-[(2S)-2-[[(2S)-4-carbamoyl-1-[2-fluoro-3-(4-[[(2S)-1-[(2S,4R)-4-hydroxy-2-[[(1S)-1-[4-(4-methyl-1,3-thiazol-5-yl)phenyl]ethyl]carbamoyl]pyrrolidin-1-yl]-3,3-dimethyl-1-oxobutan-2-yl]carbamoyl]butyl)phenoxy]butan-2-yl]carbamoyl]pyrrolidin-1-yl]-4-methyl-1-oxopentan-2-yl]carbamoyl]-1H-indole-5-carbonylphosphonate], for which the DC50 under setting [2] was under 10 nM. On to `Cc1ccc(CCCCCC(=O)N[C@H](C(=O)N2C[C@H](O)C[C@H]2C(=O)N[C@@H](C)c2ccc(-c3scnc3C)cc2)C(C)(C)C)cc1OC[C@H](CCC(N)=O)NC(=O)[C@@H]1Cc2cccc3c2N1C(=O)[C@@H](NC(=O)c1cc2cc(C(=O)P(=O)(O)O)ccc2[nH]1)CC3` [Compound I-214, 2-[[(2S,11S)-2-[[(2S)-4-carbamoyl-1-[5-(5-[[(2S)-1-[(2S,4R)-4-hydroxy-2-[[(1S)-1-[4-(4-methyl-1,3-thiazol-5-yl)phenyl]ethyl]carbamoyl]pyrrolidin-1-yl]-3,3-dimethyl-1-oxobutan-2-yl]carbamoyl]pentyl)-2-methylphenoxy]butan-2-yl]carbamoyl]-12-oxo-1-azatricyclo[6.4.1.0^[4,13]]trideca-4(13),5,7-trien-11-yl]carbamoyl]-1H-indole-5-carbonylphosphonic acid], for which, under setting [1], the DC50 is over 1000 nM. As to `Cc1ncsc1-c1ccc(CNC(=O)[C@@H]2C[C@@H](O)CN2C(=O)[C@@H](NC(=O)CCCCCc2cccc(CC[C@H](CCC(N)=O)NC(=O)[C@@H]3Cc4cccc5c4N3C(=O)[C@@H](NC(=O)c3cc4cc(C(=O)P(=O)(O)O)ccc4[nH]3)CC5)c2)C(C)(C)C)cc1` [Compound I-224, diammonium 2-[[(2S,11S)-2-[[(3R)-1-carbamoyl-5-[3-[5-[[(2S)-1-[(2S,4R)-4-hydroxy-2-([[4-(4-methyl-1,3-thiazo1-5-yl)phenyl]methyl]carbamoyl)pyrrolidin-1-yl]-3,3-dimethyl-1-oxobutan-2-yl]carbamoyl]pentyl)phenyl]pentan-3-yl]carbamoyl]-12-oxo-1-azatricyclo[6.4.1.0^[4,13]]trideca-4(13),5,7-trien-11-yl]carbamoyl]-1H-indole-5-carbonylpho sphonate], under setting [1], the DC50 was over 1000 nM. Still for that read-out and setting: next, `Cc1ncsc1-c1ccc([C@H](C)NC(=O)[C@@H]2C[C@@H](O)CN2C(=O)[C@@H](NC(=O)CCCCCc2cccc(NC(=O)[C@H](CCC(N)=O)NC(=O)[C@@H]3Cc4cccc5c4N3C(=O)[C@@H](NC(=O)c3cc4cc(C(=O)P(=O)(O)O)ccc4[nH]3)CC5)c2C)C(C)(C)C)cc1` [Compound I-259]: 100 to 1000 nM; `Cc1ncsc1-c1ccc(CNC(=O)[C@@H]2C[C@@H](O)CN2C(=O)[C@@H](NC(=O)CCCc2ccc3cc(CO[C@H](C)[C@H](CCC(N)=O)NC(=O)[C@@H]4Cc5cccc6c5N4C(=O)[C@@H](NC(=O)c4cc5cc(C(=O)P(=O)(O)O)ccc5[nH]4)CC6)ccc3c2)C(C)(C)C)cc1` [Compound I-127, diammonium 2-[[(2S,11S)-2-[[(3S,4R)-1-carbamoyl-4-[[6-(3-[[(2S)-1-[(2S,4R)-4-hydroxy-2-([[4-(4-methyl-1,3-thiazol-5-yl)phenyl]methyl]carbamoyl)pyrrolidin-1-yl]-3,3-dimethyl-1-oxobutan-2-yl]carbamoyl]propyl)naphthalen-2-yl]methoxy]pentan-3-yl]carbamoyl]-12-oxo-1-azatricyclo[6.4.1.0^[4,13]]trideca-4(13),5,7-trien-11-yl]carbamoyl]-1H-indole-5-carbonylphosphonate]: 100 to 1000 nM.
